Reference: patent US8969361B2, “Cyclopropanecarboxylate esters of purine analogues” (Annji Pharmaceutical Co., Ltd., priority 2012, dated 2015)
In brackets after ≈: the same amount, converted by molar mass. Read-outs that look alike come from different tables or passages of the source.

Assays:
[1] = Hydrolytic stability in buffer solutions of various pH (HPLC); format: physicochemical; settings: phosphate-buffered solution, read-out: half life value (T1/2), hydrolytic stability (converted)
Text: Hydrochloric acid of 0.1 N was used for pH 1 solution. Samples were repeatedly, manually injected onto HPLC at specific time intervals at room temperature. The peak areas of the compounds were monitored by UV detection. […] The “half life value, T1/2,” means the time required for one-half of the total amount of a compound in a solution to be degraded by hydrolysis processes when the rate of removal is nearly exponential. […] A first order calculation was used to determine the rate constant for each buffer on the loss of peak area over time.

[2] = Aqueous solubility (HPLC); format: physicochemical; settings: thermodynamic from solid, water
Method: The solubility experiment procedure was modified due to chemical stabilities. Briefly, an excess of a test compound was added 0.5 mL of water in an one mL of vial, pre-equilibrated, and then sonicated at 23° C. for 3 min. Aliquots were filtered and analyzed for drug contents. The concentration of each compound was determined by HPCL, at λ=254 nm, 23° C. The aliquot containing the analyte was diluted 100× due to the detection limit of the instrument.

[3] = test system: HSV-1; assay: Herpetic keratitis in mice with cornea inoculated by HSV-1 (eye-drops); format: in vivo, Balb/c mice; settings: eye-drops 0.34% or 0.2% w/v in saline, 3 times a day; for corneal cloudiness, vehicle-treated group versus treated group: day-14; for severity of ocular disease symptoms (corneal clouding, stromal keratitis, blepharitis): day-21
Method: The effect of Compound 3 on herpetic keratitis was investigated in mice with cornea inoculated by HSV-1. Balb/c mice (eight weeks old, 25 g body weight) were anesthetized with isoflurane, and epithelium of both right and left corneas lightly scratched in a cross-hatch pattern (four horizontal and four vertical scratches) with a 26-gauge needle under a microscope. The mouse cornea was inoculated with 5 μL of HSV-1 suspension containing 2.5×10^6 plaque-forming units (PFU), or saline for control. After the inoculations, mice were assigned randomly to treatment groups (4˜5 mice per group), with both eyes treated with Compound 3 or ganciclovir or vehicle (saline) after lightly anaesthetized. Eight hours after HSV-1 inoculation, 1 drop (10 μl) of 0.34% or 0.2% w/v solution of compound 3 or ganciclovir in saline with anti-fungi agent (0.05 w/v amphotericin-B) was applied to each eye daily, 3 times a day. The keratitis was graded, recorded and scored daily for 21 days, and the eyes were examined with a microscopic camera at frequent intervals.

[4] = test system: HSV-1; assay: Attenuation of HSV-1 induced cytopathic effects on Vero cells; format: cell-based; settings: HSV-1 at 10^-4 titration, treated 4 days, different concentrations
Method: Human epithelial (HEp-2) cells were cultured in MEM supplemented with 10% fetal calf serum and 10% heat activated newborn calf serum. Vero cells were cultured in RPMI-1640 and 10% heat activated newborn calf serum. Penicillin (1000 I.U./ml), streptomycin (100 μg/ml), and bicarbonate buffer were present in the medium, and cells were maintained at 37° C., 5% CO2, humidified atmosphere, and subcultured 2˜3 times a week.
The antiviral activity of Compound 3 was determined by evaluating the attenuation in HSV-1 induced cytopathic effects on Vero cells. Vero cells (10,000 cells/well) in a 96-well culture plate were infected with an increasingly diluted HSV-1 virus solution (10^−3 to 10^−5) in L15 medium. After 2 h incubation the unadsorbed virus was removed, the cell monolayer was washed with PBS. […] Every 24 hr the cytopathic effects were observed and photographed under microscope (FIG. 2). Anti-HSV-1 activity was determined by inhibition of cytopathic effect as compared with control. The cytopathic effects effects after HSV-1 propagation HSV-1 between Vero cells were quantified in terms of 50% tissue culture infective dose (TCID50, which was used to determine the infectious titer of HSV-1 which can cause cytopathic effects in culture).

[5] = test system: Vero cells; assay: Toxicity to Vero cells; format: cell-based
[6] = 23° C., sonicated 3 min, read-out: aqueous solubility

| SMILES | half-life at 1 mg/mL ([1]; pH 7.4, 40° C.) | solubility at 3 min [2, 6] | also measured |
| --- | --- | --- | --- |
| Nc1nc2c(ncn2COC(CO)COC(=O)C2(N)CC2c2ccccc2)c(=O)[nH]1 (stereo not drawn) [Compound 6, 1-Amino-2-phenyl-cyclopropanecarboxylic acid 2-(2-amino-6-oxo-1,6-dihydro-purin-9-ylmethoxy)-3-hydroxypropyl ester] | 75 h | 170 mg/mL (≈ 410 mM) | – |
| CC1(C)CC1(N)C(=O)OCC(CO)OCn1cnc2c(=O)[nH]c(N)nc21 (stereo not drawn) [Compound 7, 1-Amino-2,2-dimethyl-cyclopropanecarboxylic acid 2-(2-amino-6-oxo-1,6-dihydro-purin-9-ylmethoxy)-3-hydroxypropyl ester] | 68 h | 213 mg/mL (≈ 581 mM) | melting point: > 300 °C |
| CNC1(C(=O)OCC(CO)OCn2cnc3c(=O)[nH]c(N)nc32)CC1 (stereo not drawn) [Compound 4, 1-Methylamino-cyclopropanecarboxylic acid 2-(2-amino-6-oxo-6-dihydro-purin-9-ylmethoxy)-3-hydroxypropyl ester] | – | 227 mg/mL (≈ 644 mM) | – |
| Nc1nc2c(ncn2COC(CO)COC(=O)C2(N)CC2c2ccc(Br)cc2)c(=O)[nH]1 (stereo not drawn) [Compound 5, 1-Amino-2-(4-bromo-phenyl)-cyclopropanecarboxylic acid 2-(2-amino-6-oxo-1,6-dihydro-purin-9-ylmethoxy)-3-hydroxypropyl ester] | 85 h | 155 mg/mL (≈ 314 mM) | – |
| Nc1nc2c(ncn2COC(CO)COC(=O)C2(N)CC2)c(=O)[nH]1 (stereo not drawn) [Compound 3, 1-amino-cyclopropanecarboxylic acid 2-(2-amino-6-oxo-1,6-dihydro-purin-9-ylmethoxy)-3-hydroxypropyl ester] | 53 h | 180 mg/mL (≈ 532 mM) | half-life at 1 mg/mL ([1]; acidic solution (pH 4), 40° C.): > 300 h; melting point: > 300 °C; corneal cloudiness, vehicle-treated group versus treated group [3]: much more significant; severity of ocular disease symptoms (corneal clouding, stromal keratitis, blepharitis) [3]: eliminated the extra-ocular keratitis morphologies almost entirely; cytopathogenic effects of HSV-1 on Vero cells (morphological evaluation) [4]: reduced the cytopathogenic effects of HSV-1 on Vero cells in a concentration-dependent manner; toxicity to Vero cells [5]: nontoxic to Vero cells |
| Nc1nc(O)c2ncn(COC(CO)CO)c2n1 [ganciclovir, reference compound] | – | – | solubility at 3 min ([2]; 23 °C): 2.6 mg/mL (≈ 10.2 mM); corneal cloudiness, vehicle-treated group versus treated group [3]: much more significant; severity of ocular disease symptoms (corneal clouding, stromal keratitis, blepharitis) [3]: reduced the severities in stromal keratitia and corneal clouding dramatically, but blephartitis still existed; toxicity to Vero cells ([5]; concentrations used in the antiviral test): nontoxic to Vero cells |

Continued, in another order:

| half-life at 1 mg/mL ([1]; pH 7.4, 40° C.) | solubility at 3 min [2, 6] | SMILES | also measured |
| --- | --- | --- | --- |
| 43 h | 253 mg/mL (≈ 609 mM) | Nc1nc2c(ncn2COC(CO)COC(=O)C2(N)CC2c2ccccn2)c(=O)[nH]1 (stereo not drawn) [Compound 11, 1-Amino-2-pyridin-2-yl-cyclopropanecarboxylic acid 2-(2-amino-6-oxo-1,6-dihydro-purin-9-ylmethoxy)-3-hydroxypropyl ester] | – |
| 33 h | 261 mg/mL (≈ 642 mM) | Nc1nc2c(ncn2COC(CO)COC(=O)C2(N)CC2C(F)(F)F)c(=O)[nH]1 (stereo not drawn) [Compound 9, 1-Amino-2-trifluoromethyl-cyclopropanecarboxylic acid 2-(2-amino-6-oxo-1,6-dihydro-purin-9-ylmethoxy)-3-hydroxypropyl ester] | – |
| 29 h | 260 mg/mL (≈ 643 mM) | Nc1nc2c(ncn2COC(CO)COC(=O)C2(N)CC2c2ccco2)c(=O)[nH]1 (stereo not drawn) [Compound 10, 1-Amino-2-furan-2-yl-cyclopropanecarboxylic acid 2-(2-amino-6-oxo-1,6-dihydro-purin-9-ylmethoxy)-3-hydroxypropyl ester] | – |
| 58 h | – | CC1CC1(N)C(=O)OCC(CO)OCn1cnc2c(=O)[nH]c(N)nc21 (stereo not drawn) [Compound 8, 1-Amino-2-methyl-cyclopropanecarboxylic acid 2-(2-amino-6-oxo-1,6-dihydro-purin-9-ylmethoxy)-3-hydroxypropyl ester] | – |
